Results taken from ChEMBL document CHEMBL2384976, “Synthesis and cytotoxic evaluation of novel pyrimidine deoxyapiothionucleosides” (Bioorg Med Chem Lett, 2013).

Assays:
MRC5 = assay: Cytotoxicity against human MRC5 cells after 48 hrs by MTT assay; type: cell-based
HT-29 [1] = assay: Cytotoxicity against human HT-29 cells after 48 hrs by MTT assay; type: functional, cell-based
MDA-MB-231 [2] = assay: Cytotoxicity against human MDA-MB-231 cells after 48 hrs by MTT assay; type: functional, cell-based
MCF7 = assay: Cytotoxicity against human MCF7 cells after 48 hrs by MTT assay; type: functional, cell-based
A549 = assay: Cytotoxicity against human A549 cells after 48 hrs by MTT assay; type: functional, cell-based
HeLa = assay: Cytotoxicity against human HeLa cells after 48 hrs by MTT assay; type: functional, cell-based
HT-29 [3] = assay: Induction of cytotoxic response in human HT-29 cells after 48 hrs by MTT assay; type: functional
MDA-MB-231 [4] = assay: Induction of cytotoxic response in human MDA-MB-231 cells after 48 hrs by MTT assay; type: functional

SMILES	IC50 (MRC5; mrc5)	IC50 (HT-29 [1]; ht-29)	IC50 (MDA-MB-231 [2]; mda-mb-231)	IC50 (MCF7; mcf7)	IC50 (A549; a549)	IC50 (HeLa; hela)	Activity (HT-29 [3])	Activity (MDA-MB-231 [4])	IC50 (MRC5; Homo sapiens, MRC5, 48 h)	IC50 (HT-29 [1]; Homo sapiens, HT-29, 48 h)	IC50 (MDA-MB-231 [2]; Homo sapiens, MDA-MB-231, 48 h)	IC50 (MCF7; Homo sapiens, MCF7, 48 h)	IC50 (A549; Homo sapiens, A549, 48 h)	IC50 (HeLa; Homo sapiens, HeLa, 48 h)
C[C@@]1(O)CS[C@@H](n2ccc(N)nc2=O)[C@@H]1O [listing 1 of 2 here]	147 µM	6400 µM	10 µM	139 µM	9 µM	17 µM	–	–	–	–	–	–	–	–
Cc1cn([C@@H]2SC[C@@](C)(O)[C@H]2O)c(=O)[nH]c1=O	–	–	–	–	–	–	62%	57%	269 µM	5 µM	3 µM	323 µM	41 µM	214 µM
Cc1cn([C@H]2SC[C@](C)(O)[C@@H]2O)c(=O)[nH]c1=O	–	–	–	–	–	–	–	–	290 µM	640 µM	52 µM	172 µM	30 µM	6870 µM
C[C@@]1(O)CS[C@@H](n2ccc(=O)[nH]c2=O)[C@@H]1O	–	–	–	–	–	–	–	–	630 µM	8 µM	19 µM	193 µM	4270 µM	214 µM
C[C@]1(O)CS[C@H](n2ccc(=O)[nH]c2=O)[C@H]1O	–	–	–	–	–	–	–	–	1000 µM	269 µM	14 µM	100 µM	30 µM	4320 µM
C[C@]1(O)CS[C@H](n2ccc(N)nc2=O)[C@H]1O	–	–	–	–	–	–	–	–	221 µM	5990 µM	11 µM	13 µM	223 µM	12 µM
C[C@@]1(O)CS[C@@H](n2ccc(N)nc2=O)[C@@H]1O [listing 2 of 2 here]	4340 µM	2270 µM	58 µM	1980 µM	1320 µM	106 µM	–	–	–	–	–	–	–	–
